Results from US9486536B2 (Immunomedics, Inc., priority 2013, dated 2016).

How the values were obtained:
[1] = serum stability, HIC HPLC; format: in vitro ADME; conditions: human serum, 0.2 mg/mL, 37° C.
Procedure: Serum stability of prototypical P2PDox conjugate, hRS7-P2PDox, was determined by incubating in human serum at a concentration of 0.2 mg/mL at 37° C.

[2] = system: triple-negative breast cancer; test: treatment of triple-negative breast cancer patients; format: in vivo, human
Procedure: P2PDox-hRS7 ADC is prepared as described in Examples 1 and 3 above. Patients with triple-negative breast cancer who had failed at least two standard therapies receive 3 cycles of 70 mg P2PDox-hRS7 injected i.v. every 3 weeks. Objective responses are observed at this dose level of P2PDox-hRS7, with an average decrease in tumor volume of 35%, after two cycles of therapy. All serum samples evaluated for human anti-hRS7 antibody (HAHA) are negative.

[3] = system: Capan-1 human pancreatic adenocarcinoma xenografts; test: therapy of Capan-1 xenografts in nude mice; format: in vivo
Procedure: FIG. 2. Therapy in nude mice bearing s.c. human tumor xenografts using 2.25 mg/kg protein dose (0.064 mg/kg of drug dose) of MAb-P2PDox conjugates twice weekly×2 weeks in nude mice with Capan-1 human pancreatic adenocarcinoma xenografts (n=5).
Tumors were measured and mice weighed twice a week.
At 63 days after Capan-1 tumor injection (with therapy starting at 1 days post-innoculation), 0 of 10 mice were alive in the saline control, 10 of 10 mice were alive in mice treated twice weekly×2 weeks with 45 μg of hPAM4-P2PDox, 2 of 10 mice were alive in mice treated twice weekly×2 weeks with 45 μg of hA20-P2PDox, 0 of 10 mice were alive in mice treated twice weekly×4 weeks with 250 μg of hPAM4-SN-38, and 0 of 10 mice were alive in mice treated twice weekly×4 weeks with 250 μg of h20-SN-38.

[4] = system: NCI-N87 human gastric carcinoma xenografts; test: therapy of NCI-N87 xenografts in nude mice; format: in vivo; conditions: for mean tumor volume (mTV) on day 21: starting mTV 0.256 cm^3
Procedure: FIG. 3A. Therapy in nude mice bearing s.c. human tumor xenografts using 2.25 mg/kg protein dose (0.064 mg/kg of drug dose) of MAb-P2PDox conjugates twice weekly×2 weeks in nude mice (n=7) with NCI-N87 human gastric carcinoma xenografts.
Tumor size was determined by caliper measurements of length (L) and width (W) with tumor volume calculated as (L×W^2)/2. Tumors were measured and mice weighed twice a week. Mice were euthanized if their tumors reached >1 cm^3 in size, lost greater than 15% of their starting body weight, or otherwise became moribund. Statistical analysis for the tumor growth data was based on area under the curve (AUC) and survival time. Profiles of individual tumor growth were obtained through linear curve modeling. An f-test was employed to determine equality of variance between groups prior to statistical analysis of growth curves. A two-tailed t-test was used to assess statistical significance between all the various treatment groups and non-specific controls. For the saline control analysis a one-tailed t-test was used to assess significance. Survival studies were analyzed using Kaplan-Meier plots (log-rank analysis), using the Prism GraphPad Software (v4.03) software package (Advanced Graphics Software, Inc.; Encinitas, Calif.). All doses in preclinical experiments are expressed in antibody amounts. In terms of drug, 100 μg of antibody (5 mg/kg) in a 20-g mouse, for example, carries 1.4 μg-2.8 μg ([…]) of P2PDox equivalent dose when using an ADC with 3-6 drugs/IgG.
Using this dosing regimen, we examined the therapeutic effect of hRS7-P2PDox in 2 human tumor xenograft models, Capan-1 (pancreatic cancer) and NCI-N87 (gastric cancer). Therapy began 7 days after tumor transplantation in nude mice.
Anti-TROP-2 antibody conjugate, hRS7-P2PDox, was evaluated in nude mice bearing NCI-N87 human gastric cancer xenografts by administering a single bolus protein dose of 9 mg/kg, 6.75 mg/kg, 4.5 mg/kg, 2.25 mg/kg, or 1 mg/kg. The therapy was started when the mean tumor volume (mTV) was 0.256 cm^3.
Further in vivo efficacy studies were performed in nude mice implanted with NCI-N87 human gastric cancer xenografts (FIG. 13A-F).
The effect of varying dosage schedule on anti-tumor efficacy was examined (FIG. 14, FIG. 19A-G). The experiment began 9 days after tumor implantation when mean tumor volume for all groups was 0.383 cm^3, and ended on day 93 (84 days after initiation of therapy).

hRS7-P2PDox
release of free drug from the conjugate [1]: no release of free drug | average decrease in tumor volume ([2]; 70 mg i.v. every 3 weeks, after two cycles of therapy): 35% | human anti-hRS7 antibody (HAHA) in serum samples ([2]; human, in vivo): negative | established tumors regressed ([3]; 4 doses of 45 μg in 2 weeks, therapy began 7 days after transplantation, no re-growth): 100% | inhibition of tumor growth compared with the SN-38 conjugate of the same antibody ([3]; not shown): more effective at inhibiting tumor growth | mice alive at day 94 ([4]; 45 μg q4dx4): 8 of 9 | mice alive at day 94 ([4]; 90 μg weekly×2): 9 of 9 | effect of 2nd course of therapy ([4]; 2nd course administered after day 70): safely tolerated and led to further regressions of residual tumor | effect on tumors, one treatment cycle ([4]; 4×45 μg): rapidly regressed all tumors | effect of second treatment cycle ([4]; second cycle about 2 months after the end of the first cycle): complete regression of all but one | minimum effective dose ([4]; single bolus protein dose): 2.25 mg/kg | mean tumor volume (mTV) on day 21 ([4]; single bolus protein dose 2.25 mg/kg): 0.567±0.179 cm^3 | mean tumor volume (mTV) on day 21 ([4]; single bolus protein dose 4.5 mg/kg): 0.264±0.087 cm^3 | mean tumor volume (mTV) on day 21 ([4]; single bolus protein dose 9 mg/kg): 0.211±0.042 cm^3 | minimum single dose for significant survival benefit compared to saline control ([4]; single dose): 45 µg | single dose giving maximum effect on tumor growth ([4]; single dose): ≥ 90 µg | mice alive at day 94 ([4]; single dose of 180 μg): 78 of 9
